Patent US20170292959A1, “PLASMIDS COMPRISING INTERNAL RIBOSOMAL ENTRY SITES AND USES THEREOF” (Dana-Farber Cancer Institute, Inc., priority 2014, published 2017)
One block for each compound: values may come before it. Where a SMILES comes first, the peptide text is derived from it. The star is where a group is joined. Cbz = O=C(OCc1ccccc1)*

Key:
[1] = test system: endogenous IKZF1; test: Immunoblot of endogenous protein in leukemia and myeloma cells; format: cell-based, human; details: U937, MM1S and L363 cells; pretreated with MG132 or MLN4924
Source text: (§1) Whole cell extracts were resolved by SDS-polyacrylamide gel electrophoresis, transferred onto a nitrocellulose membrane, and probed with the indicated primary antibodies. Bound antibodies were detected with horseradish peroxidase-conjugated secondary antibodies (Pierce) and enhanced chemiluminescence (ECL) western blotting detection regents (Pierce) or Immobilon western chemiluminescent horseradish peroxidase substrate (Millipore).
(§2) For cycloheximide assays, cells were pretreated with DMSO or LEN (2 μM) for 1 hour, and then 100 μg/ml cycloheximide (Sigma) was added into the DMEM growth medium.

[2] = test system: IKZF1; test: Exogenous IKZF protein level in 293FT cells (Fluc/Rluc ratio, HA immunoblot); format: cell-based, human; details: 12 hours; for effect on down-regulation of exogenous IKZF1 by lenalidomide: with lenalidomide 2 μM, MLN4924 1 μM or MG132 10 μM
Description: To verify the change of Fluc/Rluc of ORFs obtained from the 384-well high-throughput screen, each clone was further tested in a 96 well format. […] On the day of transfection 96-well polypropylene plates (Greiner) were used to prepare the transfection mixture. First, a plasmid mixture containing 240 ng of ORF luciferase fusion clone and 480 ng of pcDNA3 was diluted into 120 μl of Opti-MEM reduced serum. Next 14.4 μL of Lipofectamine 2000 was diluted into 120 μl of Opti-MEM reduced serum. 5 minutes later, the plasmid solution was mixed with the diluted Lipofectamine 2000 using a multi-channel pipette. […] 24 hours after transfection, cells were treated with LEN (2 μM) or DMSO in quadruplicate. […] The ratio of FLuc/Rluc was calculated for each well. To determine the change of Fluc/Rluc for each ORF, the averaged Fluc/Rluc of LEN treated wells was divided by that of DMSO treated wells. A 2-tailed Student's t test was performed to determine the statistical significance. P value <0.05 was considered significant.
as §1

[3] = test system: endogenous IKZF3; test: Immunoblot of endogenous protein in myeloma cells; format: cell-based, human; details: MM1S and L363 cells; pretreated with MG132 or MLN4924
Source text: as §1, §2

[4] = test system: proteasomal substrates; test: Pilot ORF-luciferase stabilization experiment in 293FT cells (Fluc/Rluc); format: cell-based, human; details: MG132 10 μM, 24 hours
Description: (§3) FIGS. 6A-6B depict the pharmacological stabilization of firefly luciferase fusion protein. 293FT cells were transiently transfected with plasmids encoding unfused Fluc (pIRIF) or the indicated ORF-firefly luciferase (Fluc) fusions and then treated for 24 hours with DMOG (1 μM), MG132 (10 μM), or vehicle (DMSO). HIF1α-dPA is a HIF1α variant lacking both prolyl hydroxylation sites (33). Shown for each plasmid are Fluc/Rluc values (FIG. 6A) and Fold change in Fluc/Rluc compared to DMSO treatment (FIG. 6B). Data are mean±SD, n=4.
(§4) In pilot experiments 293FT embryonic kidney cells grown in multiwell plates were transfected with the ORF-luciferase library (one ORF per well) and treated with the proteasome inhibitor MG132, the hydroxylase inhibitor dimethyloxalylglycine (DMOG), or vehicle. Fluc/Rluc values measured 36 to 48 hours later were stable over a wide range of input plasmid concentrations (FIG. 5).

[5] = test system: myeloma; details: alone and in combination with lenalidomide; cited from earlier work
[6] = test system: zebrafish; details: in vivo; cited from earlier work
[7] = biological target: cereblon (Homo sapiens, UniProt Q96SW2); details: cited from earlier work
[8] = biological target: cereblon autoubiquitination activity (Homo sapiens, UniProt Q96SW2); details: cited from earlier work
[9] = in vivo; cited from earlier work
[10] = biological target: IKZF2 with the reciprocal change (H141Q) (Homo sapiens, UniProt Q9UKS7, H141Q); details: reciprocal change in IKZF2
Source text: (§5) Human IKZF4 cDNA clone was PCR amplified from ETS clone HsCD00295530 (PlasmID, DF/HCC DNA Resource Core), and then cloned into pDONR223 via BP gateway recombination. Human CRBN, human IKZF1 splicing variant 2 (IKZF1-V2), human IKZF2 splicing variant 2 (IKZF2-V2), human IKZF5 and human IRF4 in pDONR223 entry vectors were obtained from the human ORFeome Collection (DF/HCC DNA Resource Core). IKZF1 splicing variant 1 (IKZF1-V1) cDNA and human IKZF2 splicing variant 1 (IKZF2-V1) cDNA were generated by overlapping PCR and cloned into pDONR223 via BP gateway recombination. IKZF4, IKZF1-V1 and IKZF2-V1 were cloned into pIRIGF via LR gateway recombination. IKZF1/2 chimeras (IKZF12 H1, IKZF12 H2, IKZF12 H3, IKZF12 H4, IKZF21 H5, IKZF21 H6, IKZF21 H7, IKZF2 H8, IKZF121 and IKZF212), IKZF1-V2-Q146H, IKZF1-V2-H176P/L177F, IKZF2-V1-H141Q, IKZF2-V1-P171H/F172L, IKZF1-V1-Q146H, IKZF3-Q147H mutants were generated via overlapping PCR and cloned into pIRIGF via LR gateway recombination. IKZF1-V2, IKZF2-V2, IKZF3, IKZF4, IKZF5 and IRF4 were cloned into plenti-UBC-gate-3xHA-pGK-PUR via LR gateway recombination.

[11] = biological target: IKZF1 Q146H (Homo sapiens, UniProt Q13422, Q146H); details: IKZF1 residue Q146 changed to histidine
Source text: as §5

[12] = test system: IRF4; test: Immunoblot of endogenous protein in myeloma cells; format: cell-based, human; details: LEN 2 μM
Source text: as §1

[13] = biological target: T1, IRF4 (Homo sapiens, UniProt Q15306); test: Exogenous protein level in 293FT cells (Fluc/Rluc ratio, HA immunoblot); format: cell-based; details: lenalidomide 2 μM, 12 hours
T1 construct: expressed in transfected cells; host or cells: 293FT
Description: (§6) To verify the change of Fluc/Rluc of ORFs obtained from the 384-well high-throughput screen, each clone was further tested in a 96 well format. The day before transfection, 293FT cells were seeded into solid opaque 96-well plates (BD biosciences) with 20,000 cells in 100 μl of DMEM culture media per well. On the day of transfection 96-well polypropylene plates (Greiner) were used to prepare the transfection mixture. First, a plasmid mixture containing 240 ng of ORF luciferase fusion clone and 480 ng of pcDNA3 was diluted into 120 μl of Opti-MEM reduced serum. Next 14.4 μL of Lipofectamine 2000 was diluted into 120 μl of Opti-MEM reduced serum. 5 minutes later, the plasmid solution was mixed with the diluted Lipofectamine 2000 using a multi-channel pipette. After 30 minutes, 28 μl of DNA/lipofectamine mixture was added to each well of the 96 well plates seeded with 293FT cells (8 wells for each ORF). […] The ratio of FLuc/Rluc was calculated for each well. […]
as §1

[14] = test system: IRF4 mRNA; test: Real-time qPCR; format: cell-based, human; details: MM1S cells treated with lenalidomide
Description: Total RNA was extracted using Qiagen RNeasy Mini Kit with on-column DNase digestion. Total RNA was reverse transcribed into first-strand cDNA using AffinityScript QPCR cDNA Synthesis Kit (Agilent) with random primers. Real-time PCR was performed in duplicate using RT2 SYBR Green/ROX qPCR Master Mix (Qiagen) and the Mx3000P QPCR system (Stratagene). Values were averaged to calculate the expression level and normalized against the level of RPS18. PCR primers are as follows: […]

[15] = biological target: T2, C11orf65 (Homo sapiens, UniProt Q8NCR3); test: Exogenous protein level in 293FT cells (Fluc/Rluc ratio, HA tag); format: cell-based; details: lenalidomide
T2 construct: expressed in transfected cells; host or cells: 293FT
T2 sequence (Q8NCR3 1-313): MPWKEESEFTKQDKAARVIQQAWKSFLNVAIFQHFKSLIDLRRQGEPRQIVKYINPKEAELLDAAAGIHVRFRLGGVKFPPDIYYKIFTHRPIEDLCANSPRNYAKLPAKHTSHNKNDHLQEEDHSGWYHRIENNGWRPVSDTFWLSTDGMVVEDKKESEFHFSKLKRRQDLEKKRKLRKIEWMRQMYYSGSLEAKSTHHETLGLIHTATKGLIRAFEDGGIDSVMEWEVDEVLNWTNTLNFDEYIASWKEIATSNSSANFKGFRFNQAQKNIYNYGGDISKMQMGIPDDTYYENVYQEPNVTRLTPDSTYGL

[16] = test system: IRF4; details: at least indirectly; cited from earlier work
[17] = biological target: T3, IKZF5 (Homo sapiens, UniProt Q9H5V7); test: Exogenous IKZF protein level in 293FT cells (Fluc/Rluc ratio, HA immunoblot); format: cell-based; details: lenalidomide 2 μM, 12 hours
T3 construct: expressed in transfected cells; host or cells: 293FT
Description: as §6, §1

[18] = biological target: T4, IKZF4 (Homo sapiens, UniProt Q9H2S9); test: as above; format: cell-based; details: lenalidomide 2 μM, 12 hours
T4 construct: expressed in transfected cells; host or cells: 293FT
Description: as §6, §1

[19] = test system: HIF1α; test: Pilot ORF-luciferase stabilization experiment in 293FT cells (Fluc/Rluc); format: cell-based, human; details: DMOG 1 μM, 24 hours
Description: as §3, §4

[20] = biological target: T5, IKZF3 (Homo sapiens, UniProt Q9UKT9); test: Exogenous IKZF protein level in 293FT cells (Fluc/Rluc ratio, HA immunoblot); format: cell-based; details: pomalidomide 0.2 μM, 12 hours
T5 construct: expressed in transfected cells; host or cells: 293FT
Description: To verify the change of Fluc/Rluc of ORFs obtained from the 384-well high-throughput screen, each clone was further tested in a 96 well format. […] On the day of transfection 96-well polypropylene plates (Greiner) were used to prepare the transfection mixture. First, a plasmid mixture containing 240 ng of ORF luciferase fusion clone and 480 ng of pcDNA3 was diluted into 120 μl of Opti-MEM reduced serum. Next 14.4 μL of Lipofectamine 2000 was diluted into 120 μl of Opti-MEM reduced serum. 5 minutes later, the plasmid solution was mixed with the diluted Lipofectamine 2000 using a multi-channel pipette. […] The ratio of FLuc/Rluc was calculated for each well. To determine the change of Fluc/Rluc for each ORF, the averaged Fluc/Rluc of LEN treated wells was divided by that of DMSO treated wells. A 2-tailed Student's t test was performed to determine the statistical significance. P value <0.05 was considered significant.
as §1

Structure (SMILES): CC(C)C[C@@H](C=O)NC(=O)[C@H](CC(C)C)NC(=O)[C@H](CC(C)C)NC(=O)OCc1ccccc1 [MG132] (Cbz-Leu-Leu-Leu-aldehyde)
- effect of pretreatment on lenalidomide down-regulation of endogenous IKZF1 [1]: unless the cells were pretreated
- effect on down-regulation of exogenous IKZF1 by lenalidomide [2]: blocked
- effect of pretreatment on lenalidomide down-regulation of endogenous IKZF3 [3]: unless the cells were pretreated
- stabilization of ORF-Fluc fusions (Fluc/Rluc) [4]: stabilized many proteasomal substrates

Structure (SMILES): CC(C)C[C@H](NC(=O)[C@H](Cc1ccccc1)NC(=O)c1cnccn1)B(O)O [bortezomib]
- antimyeloma activity [5]: has antimyeloma activity

Structure (SMILES): O=C1CCC(N2C(=O)c3ccccc3C2=O)C(=O)N1 (stereo not drawn) [thalidomide]
- effect of treatment of zebrafish [6]: caused fin defects
- binding to cereblon [7]: bind
- effect on cereblon autoubiquitination activity [8]: inhibit
- teratogenicity [9]: teratogenicity, manifest as profound limb defects

Structure (SMILES): Nc1cccc2c1CN(C1CCC(=O)NC1=O)C2=O (stereo not drawn) [lenalidomide]
- sensitivity of IKZF2 mutant to lenalidomide [10]: partially sensitive
- cereblon binding and lenalidomide-induced degradation [11]: abrogated
- IRF4 level (immunoblot, time course) ([12]; KMS34 cells, following loss of IKZF1 and IKZF3): decrease
- IRF4 level (immunoblot, time course) ([12]; L363 cells, high basal IRF4): unaffected
- IRF4 level (immunoblot, time course) ([12]; MM1S cells, following loss of IKZF1 and IKZF3): decrease
- IRF4 level ([12]; three resistant lines (KMS11, RPMI8226, OCImy5)): not down-regulated
- level of exogenous IRF4 [13]: did not affect
- IRF4 mRNA [14]: Decreased
- level of C11orf65 fused to HA epitope tag instead of Fluc [15]: unaffected
- IRF4 level, previous studies [16]: down-regulates
- level of exogenous IKZF5 [17]: did not affect
- level of exogenous IKZF4 [18]: did not affect

Structure (SMILES): COC(=O)CNC(=O)C(=O)OC [DMOG, dimethyloxalylglycine]
- stabilization of HIF1α-Fluc fusion (Fluc/Rluc) [19]: stabilized

Structure (SMILES): NS(=O)(=O)OC[C@@H]1C[C@@H](n2ccc3c(N[C@H]4CCc5ccccc54)ncnc32)C[C@@H]1O [MLN4924]
- effect of pretreatment on lenalidomide down-regulation of endogenous IKZF1 [1]: unless the cells were pretreated
- effect on down-regulation of exogenous IKZF1 by lenalidomide [2]: blocked
- effect of pretreatment on lenalidomide down-regulation of endogenous IKZF3 [3]: unless the cells were pretreated

- level of IKZF3 fused to Fluc or HA [20]: downregulation
Structure (SMILES): Nc1cccc2c1C(=O)N(C1CCC(=O)NC1=O)C2=O (stereo not drawn) [pomalidomide]
- level of IKZF1 fused to Fluc or HA ([2]; pomalidomide 0.2 μM): downregulation
